The test concerns the target T1, Dopamine beta hydroxylase (Homo sapiens, UniProt P09172).
T1 construct: 125 μl of plasma; tissue Instituto Português do Sangue Transplantação; host or cells: human plasma from healthy donors
T1 sequence (P09172 40-617 limits assumed): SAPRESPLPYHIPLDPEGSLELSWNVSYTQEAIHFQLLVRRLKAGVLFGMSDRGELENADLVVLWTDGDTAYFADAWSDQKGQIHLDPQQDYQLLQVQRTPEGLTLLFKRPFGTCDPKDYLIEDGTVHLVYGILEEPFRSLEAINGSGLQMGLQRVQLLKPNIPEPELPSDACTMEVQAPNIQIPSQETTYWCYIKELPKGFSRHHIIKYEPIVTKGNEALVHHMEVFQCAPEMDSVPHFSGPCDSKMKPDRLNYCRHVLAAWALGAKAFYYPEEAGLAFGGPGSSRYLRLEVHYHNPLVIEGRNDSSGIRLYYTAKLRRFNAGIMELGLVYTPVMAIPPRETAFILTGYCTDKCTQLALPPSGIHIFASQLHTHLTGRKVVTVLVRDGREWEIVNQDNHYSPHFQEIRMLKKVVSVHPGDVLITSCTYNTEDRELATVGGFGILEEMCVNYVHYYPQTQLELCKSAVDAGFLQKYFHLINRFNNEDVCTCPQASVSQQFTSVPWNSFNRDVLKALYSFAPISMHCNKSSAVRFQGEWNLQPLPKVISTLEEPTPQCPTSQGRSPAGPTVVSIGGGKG
The test can be described thus: Dopamine beta hydroxylase activity in human plasma. In kind it is biochemical. The conditions noted are these: for Plasma (0.01 μM), activity in % of control: inhibitor 0.01 μM; for Plasma (0.1 μM), activity in % of control: inhibitor 0.1 μM. The essentials: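 Healthy-donor human plasma pre-incubated 10 min at 37° C with compound at final 10, 100 or 1000 nM in pH 5.0 acetate buffer with ascorbate, fumarate, pargyline, N-ethylmaleimide, catalase and copper sulfate. Tyramine substrate then added for 45 min; octopamine formed was isolated by SCX cartridge, periodate-converted and read at 330 nm; activity given as % control.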

For `CN(C(=O)Cc1[nH]c(=S)n2c1C[C@H](c1c(F)ccc(F)c1F)C2)C1CCOC1` (stereo partly drawn) [Example 364, N-methyl-N-(tetrahydrofuran-3-yl)-2-((R)-3-thioxo-6-(2,3,6-trifluorophenyl)-2,5,6,7-tetrahydro-3H-pyrrolo[1,2-c]imidazol-1-yl)acetamide], the “Plasma (0.01 μM), activity in % of control” value is reported as 97.0 % of control and the “Plasma (0.1 μM), activity in % of control” value is 54.7 % of control.
As for `CS(=O)(=O)CCNCCc1[nH]c(=S)n2c1C[C@H](c1c(F)ccc(Br)c1F)C2` [Example 182, (R)-6-(3-bromo-2,6-difluorophenyl)-1-(2-((2-(methylsulfonyl)ethyl)amino)ethyl)-2,5,6,7-tetrahydro-3H-pyrrolo[1,2-c]imidazole-3-thione], the “Plasma (0.01 μM), activity in % of control” value is 94.6 % of control and the “Plasma (0.1 μM), activity in % of control” value is given as 71.0 % of control.
Taken in the same sequence, the figures for `Cn1c(CC(=O)NC2COC2)c2n(c1=S)C[C@@H](c1c(F)ccc(F)c1F)C2` [Example 414, (R)-2-(2-methyl-3-thioxo-6-(2,3,6-trifluorophenyl)-2,5,6,7-tetrahydro-3H-pyrrolo[1,2-c]imidazol-1-yl)-N-(oxetan-3-yl)acetamide] were 95.4 % of control and 49.0 % of control.
Taken in the same sequence, the figures for `Cn1c(CC(=O)NC2CCOCC2)c2n(c1=S)C[C@@]1(c3cc(Cl)ccc3F)C[C@@H]21` [Example 313, 2-((5aS,6aR)-5a-(5-chloro-2-fluorophenyl)-2-methyl-3-thioxo-2,3,5,5a,6,6a-hexahydrocyclopropa[3,4]pyrrolo[1,2-c]imidazol-1-yl)-N-(tetrahydro-2H-pyran-4-yl)acetamide] were 37.6 % of control and 9.6 % of control.
The matching figures for `Cn1c(CC(=O)N[C@@H]2CCOC2)c2n(c1=S)C[C@@]1(c3c(F)ccc(Cl)c3F)C[C@@H]21` [Example 274, 2-((5aS,6aR)-5a-(3-chloro-2,6-difluorophenyl)-2-methyl-3-thioxo-2,3,5,5a,6,6a-hexahydrocyclopropa[3,4]pyrrolo[1,2-c]imidazol-1-yl)-N—((R)-tetrahydrofuran-3-yl)acetamide]: 55.9 % of control and 11.2 % of control.
`Cn1c(CC(=O)NC2COC2)c2n(c1=S)C[C@H](c1c(F)ccc(F)c1F)C2` [Example 432, (S)-2-(2-methyl-3-thioxo-6-(2,3,6-trifluorophenyl)-2,5,6,7-tetrahydro-3H-pyrrolo[1,2-c]imidazol-1-yl)-N-(oxetan-3-yl)acetamide]: the “Plasma (0.01 μM), activity in % of control” value is given as 79.7 % of control and the “Plasma (0.1 μM), activity in % of control” value is 43.7 % of control.
The matching figures for `Cn1c(CC(=O)NC2CCOCC2)c2n(c1=S)C[C@@]1(c3c(F)ccc(Cl)c3F)C[C@@H]21` [Example 423, 2-((5aS,6aR)-5a-(3-chloro-2,6-difluorophenyl)-2-methyl-3-thioxo-2,3,5,5a,6,6a-hexahydrocyclopropa[3,4]pyrrolo[1,2-c]imidazol-1-yl)-N-(tetrahydro-2H-pyran-4-yl)acetamide]: 18.5 % of control and 1.7 % of control.
On to `Cn1c(CC(=O)NCc2cccnc2)c2n(c1=S)C[C@H](c1c(F)ccc(Cl)c1F)C2` [Example 290, (S)-2-(6-(3-chloro-2,6-difluorophenyl)-2-methyl-3-thioxo-2,5,6,7-tetrahydro-3H-pyrrolo[1,2-c]imidazol-1-yl)-N-(pyridin-3-ylmethyl)acetamide], for which the “Plasma (0.01 μM), activity in % of control” value was 37.6 % of control and the “Plasma (0.1 μM), activity in % of control” value is recorded as 3.8 % of control.

Source of the values: patent publication US11434242B2, “Dopamine-b-hydroxylase inhibitors” (BIAL-PORTELA & Cª, S.A., priority 2017, dated 2022).
